In publication PMC9140701, “Immunomodulatory Role of BLG-Derived Peptides Based on Simulated Gastrointestinal Digestion and DC-T Cell from Mice Allergic to Cow’s Milk” (Foods, 2022):
Ends that are not written are not given here.

Key:
[1] = Caco-2 monolayer transport (apparent permeability), normal and IL-1β-induced inflammation model; assay type: in vitro ADME, human; settings: human; Caco-2 monolayer, 12-well Transwell, 21 days, TEER > 400 Ω × cm^2, from AP side, 37 °C; within 2 h, at the three time points; normal model and IL-1β-induced inflammation model; three replicates; read-out: apparent permeability coefficient (Papp)
Experimental: (§1) Caco-2 cells (a human colon adenocarcinoma cell line) were preserved in our lab and cultured in DMEM supplemented with 12% (v/v) FBS (FND500, ExCell Bio, Shanghai, China), 1% (v/v) L-glutamine, 1% (v/v) streptomycin–penicillin, and 1% (v/v) nonessential amino acids at 37 °C and 5% CO2. Caco-2 cells were seeded in 12-well Transwell plates at a density of 2 × 10^5 cells per well. On the 10th to 21st days, the transepithelial electrical resistance (TEER) of each well was detected using a Millicell ERS-2 V-ohm meter (Millipore, Boston, MA, USA). […] The protein profile of cow’s milk after simulated digestion was detected by (A) Tricine-SDS-PAGE. Lane 1: unstained low range protein ladder. Lane 2: pepsin. Lane 3: the cow’s milk. Lane 4: cow’s milk digested in the simulated adult gastrointestinal fluid for 0 min. Lane 5: cow’s milk digested in the simulated adult gastric fluid for 60 min. Lane 6: cow’s milk digested in the simulated adult gastrointestinal fluid for 60 min. Lane 7: cow’s milk digested in the simulated infant gastrointestinal fluid for 0 min. Lane 8: cow’s milk digested in the simulated infant gastric fluid for 60 min. Lane 9: cow’s milk digested in the infant simulated gastrointestinal fluid for 60 min. […] Y-axis value represents the occurrence numbers of amino acids of BLG peptides. (C) The whole amino acid sequence of BLG used in our study; the red letters indicate the areas where unique peptides are present after the simulated digestion of the infants, while the green letters represent unique peptides in the adults’ digestion. (D) The Papp of BLG peptides across Caco-;2 monolayers at 30 min, 1 h, 2 h, 3 h, and 4 h in the normal model and IL-1β-induced inflammation model, respectively. The data were calculated in three replicates. BLG, beta-lactoglobulin. Papp, apparent permeability coefficients.

Caco-2 cell monolayer = test: as above; assay type: in vitro ADME, human; settings: integrity check
Experimental: as §1

RVYVEELKPTPEGDLEILLQK [Peptide A3]
Papp A→B [1]: > 2 ×10⁻⁶ cm/s

O=C([O-])c1ccccc1-c1c2ccc(=O)cc-2oc2cc([O-])ccc12.[Na+].[Na+] [fluorescein sodium, reference compound]
fluorescein sodium transport permeability (Caco-2 cell monolayer; Caco-2 monolayer after 21 days, normal mode): 1.19 μg/h·cm^2
fluorescein sodium transport permeability (Caco-2 cell monolayer; Caco-2 monolayer, inflammatory mode (IL-1β 10 ng/mL added on the 21st day, removed after 2 days)): 1.71 μg/h·cm^2

MAASDISLLDAQ [Peptide A2]
Papp A→B [1]: > 2 ×10⁻⁶ cm/s

LIVTQTMKGLDIQK [Peptide A1]
Papp A→B [1]: > 2 ×10⁻⁶ cm/s
